Results: US20200339544A1 (JOINT STOCK COMPANY "BIOCAD", priority 2017, published 2020)

How the values were obtained:
[1] = Permeability through monolayer of Caco-2 cells; type: in vitro ADME; details: human, Caco-2 monolayer; for Papp A→B at 2 h, 10 µM: pH 6.5 upper / pH 7.4 lower, 2 h at 37° C.; for efflux ratio at 2 h, 10 µM: Papp B-A/Papp A-B
Excerpt: 2) Assessment of permeability through monolayer of Caco-2 cells.
Assessment of permeability through the monolayer of Caco-2 cells allows to evaluate the ability of the candidate compounds to penetrate through biological membranes by active and passive transport.
Caco-2, the cells of the intestinal epithelium, had been cultured in transwell plate inserts with the filters (with pores of 0.4 μm, BD Falcon with High Density) for 21 days, and then the integrity of the monolayer were estimated with Lucifer Yellow (Sigma-Aldrich, USA) by standard protocol. When setting the A→B transfer (“intestinal lumen”—“blood stream” transfer), solutions of test substances were added in a buffer with pH 6.5 (HBSS, 10 mM HEPES, 15 mM glucose solution) with the concentration of 10 μM into the upper chamber; the lower chamber was filled with a buffer with pH 7.4 (HBSS, 10 mM HEPES, 15 mM Glucose, 1% BSA). When setting B→A transfer (“blood stream”—“intestinal lumen” transfer), the upper chamber was filled with the buffer with pH 6.5, and solutions of the test substances were added in the buffer with pH 7.4 at the concentration of 10 μM in the lower chamber. Propranolol was used as a control substance (as it has high permeability).
After incubating for 2 h at 37° C. under 5% CO2, the amounts of test substances were determined in the upper and lower chambers by HPLC using Agilent1200 chromatograph (Agilent, USA) with preliminary protein precipitation with acetonitrile. We used gradient elution (1 mL/min flow rate). We determined the areas of peaks corresponding to the compounds. On the basis of peak areas in the calibration standards we determined the concentration of compound in the initial solution and in the samples from the wells of the upper and lower chambers. Papp, permeability through the cell layer, was calculated using the following formula:
Papp=(C(t)*V)/(C(0)*t*Area), wherein
The value was calculated with the following formula:
efflux=Papp B-A/Papp A-B, wherein • Papp A-B—the volume of permeability in A→B test; • Papp B-A—he volume of permeability in B→A test.

[2] = target: T1, DM EGFR (DoubleMutantEGFR, L828R/T790M) (Homo sapiens, UniProt P00533, L858R/T790M); assay: Inhibition of DM EGFR kinase activity (ADP-Glo); type: biochemical; details: for IC50: inhibition of kinase activity, EGFR DM (L828R/T790M); for SI, IC50(WT)/IC50(DM): selectivity index, kinase EGFR WT vs EGFR DM
T1 construct: purchased SignalChem
Method in brief: (§1)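 Luminescent ADP-Glo readout was used for both wild-type and L858R/T790M EGFR, each run 180 minutes at 37° C. Reactions used a solution of 50 μM ATP with 0.5 mg/mL peptide substrate. Four-parameter logistic curves gave IC50.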

[3] = General cytotoxicity on HepG2 cells; type: cell-based; details: human; general cytotoxicity, HepG2 cells, 72 hours, average of several tests
Method in brief: (§2)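 HepG2 cells seeded at 2*10^4 cells per well and compounds added in DMEM with 2% FBS for 72 h at 37 °C. Viability read with Alamar Blue and CC50 derived as for IC50. Therapeutic index taken as HepG2 CC50 over H1975 IC50.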

HepG2 cells = assay: General cytotoxicity on HepG2 cells; type: cell-based; details: therapeutic index, CC50 HepG2 / IC50 H1975
Method in brief: as §2

WT EGFR (Wild-Type EGFR) = target: T2, WT EGFR (Wild-Type EGFR) (Homo sapiens, UniProt P00533); assay: Inhibition of WT EGFR kinase activity (ADP-Glo); type: biochemical
T2 construct: purchased SignalChem
Method in brief: as §1

SMILES	Papp A→B at 2 h, 10 µM [1] [×10⁻⁶ cm/s]	efflux ratio at 2 h, 10 µM [1]	IC50 [2] [nM]	SI, IC50(WT)/IC50(DM) [2]	IC50 (WT EGFR (Wild-Type EGFR)) [nM]	CC50 at 72 h [3] [µM]	TI, CC50/IC50 (HepG2 cells)
C=CC(=O)Nc1cc(Nc2nccc(C(=O)c3ccc(OC(C)C)cc3)n2)c(OC)cc1N(C)CCN(C)C [EGFR_3365_31, N-(2-((2-(dimethylamino)ethyl)(methyl)amino)-5-((4-(4-isopropoxybenzoyl)pyrimidin-2-yl)amino)-4-methoxyphenyl) acrylamide]	3.7	1.1	8.65	15.12	131	9.49	1293
C=CC(=O)Nc1cc(Nc2cc(C(=O)c3ccc(OCCC)cc3)ccn2)c(OC)cc1N(C)CCN(C)C [EGFR_3365_50, N-(2-((2-(dimethylamino)ethyl)(methyl)amino)-4-methoxy-5-((4-(4-propoxybenzoyl)pyridin-2-yl)amino)phenyl)acrylamide]	2	0.3	3.29	9.74	32	12.4	262
C=CC(=O)Nc1cc(Nc2cc(C(=O)c3ccc(OC)cc3)ccn2)c(OC)cc1N(C)CCN(C)C [EGFR_3365_51, N-(2-((2-(dimethylamino)ethyl)(methyl)amino)-4-methoxy-5-((4-(4-methoxybenzoyl)pyridin-2-yl)amino)phenyl)acrylamide]	3.2	1.7	4.72	10.75	50.8	20.9	620
C=CC(=O)Nc1cc(Nc2cc(C(=O)c3ccc(OCC)cc3)ccn2)c(OC)cc1N(C)CCN(C)C [EGFR_3365_52, N-(2-((2-(dimethylamino)ethyl)(methyl)amino)-5-((4-(4-ethoxybenzoyl)pyridin-2-yl)amino)-4-methoxyphenyl) acrylamide]	3	1.2	6.41	10.58	67.9	15.6	237
C=CC(=O)Nc1cc(Nc2cc(C(=O)c3ccc(N4CCCC4)cc3)ccn2)c(OC)cc1N(C)CCN(C)C [EGFR_3365_56, N-(2-((2-(dimethylamino)ethyl)(methyl)amino)-4-methoxy-5-((4-(4-(pyrrolidin-1-yl)benzoyl)pyridin-2-yl)amino)phenyl)acrylamide]	1.8	1.7	6.3	19.14	121	9.51	325
C=CC(=O)Nc1cc(Nc2nccc(C(=O)c3ccc(N4CC(OC)C4)cc3)n2)c(OC)cc1N(C)CCN(C)C [EGFR_3365_61, N-(2-((2-(dimethylamino)ethyl)(methyl)amino)-4-methoxy-5-((4-(4-(3-methoxyazetidin-1-yl)benzoyl)pyrimidin-2-yl)amino)phenyl)acrylamide]	5.5	1.8	2.76	19.27	53.1	43	5296
C=CC(=O)Nc1cc(Nc2nccc(C(=O)c3ccc(OCCCC)cc3)n2)c(OC)cc1N(C)CCN(C)C [EGFR_3365_66, N-(5-((4-(4-butoxybenzoyl)pyrimidin-2-yl)amino)-2-((2-(dimethylamino)ethyl)(methyl)amino)-4-methoxyphenyl)acrylamide]	1.3	0.4	1.86	25.13	46.8	9.64	278
C=CC(=O)Nc1cc(Nc2nccc(C(=O)c3ccc(OCCC)cc3OCCC)n2)c(OC)cc1N(C)CCN(C)C [EGFR_3365_70, N-(2-((2-(dimethylamino)ethyl)(methyl)amino)-5-((4-(2,4-dipropoxybenzoyl)pyrimidin-2-yl)amino)-4-methoxyphenyl)acrylamide]	2.5	0.4	14.7	16.96	250	11.5	56
C=CC(=O)Nc1cc(Nc2nccc(C(=O)c3ccc(N(CC)CC)cc3)n2)c(OC)cc1N(C)CCN(C)C [EGFR_3365_72, N-(5-((4-(4-(diethylamino)benzoyl)pyrimidin-2-yl)amino)-2-((2-(dimethylamino)ethyl)(methyl)amino)-4-methoxyphenyl)acrylamide]	3.5	1.5	3.71	15.09	55.9	16.2	1408
C=CC(=O)Nc1cc(Nc2nccc(C(=O)c3ccc(OC)cc3OCCC)n2)c(OC)cc1N(C)CCN(C)C [EGFR_3365_102, N-(2-((2-(dimethylamino)ethyl)(methyl)amino)-4-methoxy-5-((4-(4-methoxy-2-propoxybenzoyl)pyrimidin-2-yl)amino)phenyl)acrylamide]	27.5	1.62	11.2	18.40	206	27.5	342

Further compounds by falling IC50 [2], results first:

Papp A→B at 2 h, 10 µM [1] [×10⁻⁶ cm/s]	efflux ratio at 2 h, 10 µM [1]	IC50 [2] [nM]	SI, IC50(WT)/IC50(DM) [2]	IC50 (WT EGFR (Wild-Type EGFR)) [nM]	SMILES	CC50 at 72 h [3] [µM]	TI, CC50/IC50 (HepG2 cells)
5.8	1.1	2.36	16.81	39.7	C=CC(=O)Nc1cc(Nc2nccc(C(=O)c3ccc(N4CCC4)cc3)n2)c(OC)cc1N(C)CCN(C)C [EGFR_3365_58, N-(5-((4-(4-(azetidin-1-yl)benzoyl)pyrimidin-2-yl)amino)-2-((2-(dimethylamino)ethyl)(methyl)amino)-4-methoxyphenyl)acrylamide]	44.4	4241
5.1	1.6	2.35	13.89	32.7	C=CC(=O)Nc1cc(Nc2nccc(C(=O)c3ccc(N(C)C)cc3)n2)c(OC)cc1N(C)CCN(C)C [EGFR_3365_73, N-(5-((4-(4-(dimethylamino)benzoyl)pyrimidin-2-yl)amino)-2-((2-(dimethylamino)ethyl) (methyl)amino)-4-methoxyphenyl)acrylamide]	35.6	3465
6.54	0.86	1.41	18.02	25.4	C=CC(=O)Nc1cc(Nc2nccc(C(=O)c3cc4ccccc4n3C)n2)c(OC)cc1N(C)CCN(C)C [EGFR_3365_94, N-(2-((2-(dimethylamino)ethyl) (methyl)amino)-4-methoxy-5-((4-(1-methyl-1H-indole-2-carbonyl)pyrimidin-2-yl)amino)phenyl)acrylamide]	12	1801
4.9	1	0.94	24.32	22.9	C=CC(=O)Nc1cc(Nc2nccc(C(=O)c3ccc(N4CCCC4)cc3)n2)c(OC)cc1N(C)CCN(C)C [EGFR_3365_63, N-(2-((2-(dimethylamino)ethyl)(methyl)amino)-4-methoxy-5-((4-(4-(pyrrolidin-1-yl)benzoyl)pyrimidin-2-yl)amino)phenyl)acrylamide]	13	2239
2.2	1.49	0.75	43.40	32.3	C=CC(=O)Nc1cc(Nc2nccc(C(=O)c3ccc(N4CCCCC4)cc3)n2)c(OC)cc1N(C)CCN(C)C [EGFR_3365_90, N-(2-((2-(dimethylamino)ethyl)(methyl)amino)-4-methoxy-5-((4-(4-(piperidin-1-yl)benzoyl)pyrimidin-2-yl)amino)phenyl)acrylamide]	12.8	1689
